These results are taken from patent US4667032A, “Phenothiazone derivatives and analogs” (Merck Frosst Canada, Inc., priority 1985, dated 1987).

A word on the IC50: it is the concentration that inhibits the measured activity by half. High values mean a need for much substance, low ones inhibition by little substance.

In brackets after ≈: the same amount, converted by molar mass.

For test [1], the system named is tracheal chain of sensitized guinea pigs. Description: Antigen Challenge 'in vitro' Assay (egg albumin contraction of sensitized guinea pig tracheal chain). Here is the method:
Male guinea pigs weighing 300-350 g were sensitized by injecting (I.P.) 0.5 ml of a suspension containing 0.4 mg of egg albumin (Ovalbumin, Grade V, Sigma Chemical Co.) and 4.0 g aluminum hydroxide in 19.6 ml of saline. Two weeks were permitted for sensitization to occur.
Three sensitized guinea pigs were stunned and exsanguinated. The tracheas were removed, freed of adhering tissue and divided longitudinally by cutting through the cartilaginous tissue directly opposite the muscle insertion. Each opened trachea was then transected between every second cartilage. Four of the cut sections were tied together, end to end, in a series with No. 7 silk thread ensuring that the tracheal muscles were all in the same vertical plane. Thus, each chain consisted of tissue from three different animals.
The chain so formed was then suspended under 1 g of tension (by silk ties at each end) in a 20 ml organ bath containing 10 ml of modified* Krebs-Henseleit buffer solution gassed with 95% O2 and 5% CO2 at 37° C. Mepyramine (0.55 μg/ml) and indomethacin (2.67 μg/ml) were added to the buffer to avoid the contribution of histamine receptors and cyclooxygenase products to the contraction. To record responses one end of the tracheal chain was attached to a Gould-Statham UC-2 force displacement transducer which was connected to a Beckman Type R-dynograph.The preparations were allowed to equilibrate for one hour during which time the tissues were automatically washed (10 ml volume displacement) every 6 minutes.
After the equilibration period the tissues were primed with methacholine (3 μg/ml; 1.5×10^-5 M), washed and allowed to recover to baseline. The tissues were treated again with a second dose of methacholine, washed, allowed to return to baseline and washed for an additional hour.
Two chains were used as a control. These were incubated in a concentration of egg albumin sufficient to induce an average contraction of 50-80% of the methacholine response.
Each compound to be tested was added to two other baths (at a final concentration in each bath of 10 μg/ml) 15 minutes prior to challenging the fresh chains with egg albumin.
The response of the challenged tissue was expressed as a percentage of the methacholine maximum. The % inhibition for each compound was then calculated. Compounds which at 10 μg/ml (final conc.) inhibited the egg albumin response by 50% or more were retested at a lower concentration.

For a further test, the target named is T1, 5-Lipoxygenase (Rattus norvegicus, UniProt P12527).
T1 construct: Rat basophilic leukemia (RBL-1) cells were sonicated and centrifuged at 125000 xg; endogenous in cells; host or cells: RBL-1 (rat basophilic leukemia) cells, 125000 xg supernatant of sonicate
T1 sequence (P12527 1-673): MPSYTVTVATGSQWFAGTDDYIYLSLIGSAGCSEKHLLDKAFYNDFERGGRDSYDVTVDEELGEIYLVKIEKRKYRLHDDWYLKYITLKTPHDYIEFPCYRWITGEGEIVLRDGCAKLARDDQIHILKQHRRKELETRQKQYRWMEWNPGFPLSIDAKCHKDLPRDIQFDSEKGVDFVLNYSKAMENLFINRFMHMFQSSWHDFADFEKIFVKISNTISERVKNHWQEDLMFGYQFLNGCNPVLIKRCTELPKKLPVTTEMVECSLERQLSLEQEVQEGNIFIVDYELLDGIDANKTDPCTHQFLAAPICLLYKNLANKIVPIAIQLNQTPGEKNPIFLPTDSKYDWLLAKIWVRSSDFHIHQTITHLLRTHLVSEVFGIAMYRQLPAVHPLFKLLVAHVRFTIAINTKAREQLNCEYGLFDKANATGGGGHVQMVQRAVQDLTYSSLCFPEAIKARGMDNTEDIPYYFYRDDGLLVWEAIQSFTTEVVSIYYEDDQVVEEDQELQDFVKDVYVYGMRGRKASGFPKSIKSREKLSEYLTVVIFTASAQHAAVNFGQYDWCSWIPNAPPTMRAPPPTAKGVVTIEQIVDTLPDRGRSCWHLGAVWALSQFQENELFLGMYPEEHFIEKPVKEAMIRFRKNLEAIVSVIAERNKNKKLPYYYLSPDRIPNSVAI
Description: RBL-1 5-Lipoxygenase. Particulars: for IC50: Table 4, first part. The test is classed as biochemical. Here is the method:
Rat basophilic leukemia (RBL-1) cells were sonicated and centrifuged at 125000 xg. The resulting supernatant fraction was incubated with arachidonic acid (labelled with ^14 C) to convert a portion of it to ^14 C-5(S)-hydroxyicosatetraenoic acid (5-HETE). Compounds being evaluated as inhibitors of 5-Lipoxygenase were added prior to the addition of arachidonic acid. 5-HETE was isolated by extraction and paper chromatography, and quantitated by determining the amount of radioactivity (cpm) associated with 5-HETE.
Reference: Egan, R. W., Tischler, A. M. Baptista, E. H., Ham, E. A., Soderman, D. D., and Gale, P. H., Advances in Prostaglandin, Thromboxane and Leukotriene Research 11 151 (1983), (Samuelson, B., Ramwell, P. W., and Paoletti, R. (eds.), Raven Press, N.Y.

Test [2] has as its system Mouse peritoneal macrophages. Description: Mouse Macrophage Assay (leukotriene C4 / PGE2 / 6-keto PGF1α formation, zymosan stimulated). The test is classed as cell-based. As to conditions: Table 4, first part. As to the method: Mouse peritoneal macrophages were treated sequentially with arachidonic acid (labelled with tritium); the compound being evaluated as an inhibitor, and a stimulator (zymosan). Metabolites derived from arachidonic acid PGE2 6-keto PH-F1α and leukotriene C4) were separated from the incubation medium by extraction and chromatography, and then quantitated by determining the amount of radioactivity (cpm) associated with each of them. […] (This protocol is identical to that described in the reference except that the radioactivity herein associated with the LTC4 was determined by counting an aliquot of the final aqueous solution directly rather than chromatographing it first).
Reference: Humes, J. L. et al., J. Biol. Chem. 257, 1591-4, (1982).

With `O=c1ccc2nc3ccccc3sc-2c1` [Test No. 4], the “In Vitro Antigen Challenge Test % Inhibition” value is recorded as 42% in test [1] (0.3 μg (μg/ml)), 77% in test [1] (1 μg (μg/ml)) and 100% in test [1] (10 μg (μg/ml)). The results for the IC50 (against 5-Lipoxygenase; in test [2]) were 0.0469 µM and 0.1 mg/L (≈ 0.469 µM), respectively.

Regarding `O=c1ccc2nc3ccccc3sc-2c1Cl` [drawing 26], the figures for the “In Vitro Antigen Challenge Test % Inhibition” value in test [1] (1 μg (μg/ml)) and in test [1] (10 μg (μg/ml)) were 44% and 100%, respectively. For the same compound, the IC50 at 5-Lipoxygenase is 0.0404 µM; in test [2], 0.2 mg/L (≈ 0.807 µM).

`O=c1c(Cl)cc2nc3ccccc3sc-2c1Cl` [Test No. 5]: the inhibition at 0.05 µg/mL on 5-Lipoxygenase (at 0.05 μg/ml, read-out: RBL-1, % at stated concentration) worked out at 65%.
